pIC50: −log10 of the molar value. Bounds are passed on as bounds.

The term pIC50 denotes the negative decadic logarithm of the IC50, by convention in mol/L. A higher pIC50 goes with a small IC50.

The target of experiment [1] is Adenosine A2a (ADORA2A) receptor (Homo sapiens (Human), UniProt P29274). The experiment can be described thus: ADORA2A Receptor Binding Assay. The conditions noted are these: radioligand binding, membrane stock. In outline: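 Test compounds incubated with A2a receptor membranes and a ³H-labelled radioligand for 2 hours at room temperature, then filtered through PEI-presoaked GF/C plates and washed. Filter-bound ³H counted by scintillation; % inhibition calculated from background-subtracted signal relative to high control.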
Sequence of Adenosine A2a (ADORA2A) receptor (P29274 whole entry): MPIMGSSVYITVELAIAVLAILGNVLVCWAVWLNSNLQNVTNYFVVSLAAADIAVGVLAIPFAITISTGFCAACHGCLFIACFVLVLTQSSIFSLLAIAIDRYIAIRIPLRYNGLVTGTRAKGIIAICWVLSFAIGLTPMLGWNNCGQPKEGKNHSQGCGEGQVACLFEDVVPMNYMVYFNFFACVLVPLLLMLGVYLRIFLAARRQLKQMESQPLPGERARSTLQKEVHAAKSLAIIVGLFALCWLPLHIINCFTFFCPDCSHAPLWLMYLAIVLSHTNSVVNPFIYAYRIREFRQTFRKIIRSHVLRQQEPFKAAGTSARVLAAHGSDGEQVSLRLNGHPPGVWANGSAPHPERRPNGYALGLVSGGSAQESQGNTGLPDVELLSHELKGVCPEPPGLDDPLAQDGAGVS

The target in experiment [2] is Adenosine A2B (ADORA2B) receptor (Homo sapiens (Human), UniProt P29275). Kind of experiment: ADORA2B Receptor Binding Assay. The conditions noted are these: radioligand binding, membrane stock. In outline:
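Radioligand competition binding on human A2B receptor membranes, 1 h at room temperature, then filtration through BSA-presoaked GF/C filters and ³H counting by scintillation. Inhibition expressed as % of high control after background subtraction.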

Sequence of Adenosine A2B (ADORA2B) receptor (P29275 whole entry): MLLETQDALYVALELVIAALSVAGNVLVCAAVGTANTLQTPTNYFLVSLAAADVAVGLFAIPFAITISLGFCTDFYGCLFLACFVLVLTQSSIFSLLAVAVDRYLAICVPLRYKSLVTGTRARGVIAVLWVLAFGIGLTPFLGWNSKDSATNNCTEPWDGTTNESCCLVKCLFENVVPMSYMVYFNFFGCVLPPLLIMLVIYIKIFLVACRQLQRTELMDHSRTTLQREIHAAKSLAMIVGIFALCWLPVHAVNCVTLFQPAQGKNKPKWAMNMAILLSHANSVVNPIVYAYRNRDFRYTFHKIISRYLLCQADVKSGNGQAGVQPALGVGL

For the compound `Cc1cc2c(nc(-c3ccco3)n3nc(C(F)(F)F)nc23)[nH]1` [Compound 82, 7-(furan-2-yl)-11-methyl-4-(trifluoromethyl)-3,5,6,8,10-pentazatricyclo[7.3.0.0^2,6]dodeca-1(9),2,4,7,11-pentaene], the pIC50 in experiment [1] and in experiment [2] was over 8.00 throughout.

Consider `Cc1nc2c(Br)c(N)nc(-c3ccc(F)cc3)n2n1` [Compound 83, 8-bromo-5-(4-fluorophenyl)-2-methyl-[1,2,4]triazolo[1,5-c]pyrimidin-7-amine], for which the pIC50 in experiment [1] is 7.00 to 8.00; in experiment [2], 6.00 to 7.00.

Turning to `Cc1nc2c(Cl)c(N)nc(-c3ccccc3Cl)n2n1` [Compound 84, 8-chloro-5-(2-chlorophenyl)-2-methyl-[1,2,4]triazolo[1,5-c]pyrimidin-7-amine], the negative-log IC50 (pIC50) in experiment [1] and in experiment [2] was under 6.00 in each case.

Turning to `Cc1nc2cc(NC(=O)C3CC3)nc(-c3ccc(F)o3)n2n1` [Compound 85, N-[5-(5-fluorofuran-2-yl)-2-methyl-[1,2,4]triazolo[1,5-c]pyrimidin-7-yl]cyclopropanecarboxamide], the pIC50 in experiment [1] and in experiment [2] was over 8.00 each time.

On to `CC(C)c1nc2c(Cl)c(N)nc(-c3ccccc3)n2n1` [Compound 86, 8-chloro-5-phenyl-2-propan-2-yl-[1,2,4]triazolo[1,5-c]pyrimidin-7-amine], for which the pIC50 was over 8.00 in experiment [1] and 7.00 to 8.00 in experiment [2].

On to `Nc1nc(-c2ccccc2)n2nc(C(F)(F)F)nc2c1Cl` [Compound 87, 8-chloro-5-phenyl-2-(trifluoromethyl)-[1,2,4]triazolo[1,5-c]pyrimidin-7-amine], for which the pIC50 in experiment [1] is over 8.00; in experiment [2], 7.00 to 8.00.

On to `Cc1cc2c(nc(-c3ccc(C)o3)n3nc(C(F)(F)F)nc23)[nH]1` [Compound 88, 11-methyl-7-(5-methylfuran-2-yl)-4-(trifluoromethyl)-3,5,6,8,10-pentazatricyclo[7.3.0.0^2,6]dodeca-1(9),2,4,7,11-pentaene], for which the pIC50 in experiment [1] and in experiment [2] was over 8.00 each time.

Regarding `Cc1nc2c(Br)c(N)nc(-c3ccccc3)n2n1` [Compound 89, 8-bromo-2-methyl-5-phenyl-[1,2,4]triazolo[1,5-c]pyrimidin-7-amine], the pIC50 in experiment [1] and in experiment [2] was 7.00 to 8.00 throughout.

Regarding `CC(=O)Nc1cc2nc(C)nn2c(-c2ccc(Br)o2)n1` [Compound 90, N-[5-(5-bromofuran-2-yl)-2-methyl-[1,2,4]triazolo[1,5-c]pyrimidin-7-yl]acetamide], the pIC50 in experiment [1] and in experiment [2] was over 8.00 throughout.

On to `CC(=O)Nc1cc2nc(C3COC3)nn2c(-c2ccco2)n1` [Compound 91, N-[5-(furan-2-yl)-2-(oxetan-3-yl)-[1,2,4]triazolo[1,5-c]pyrimidin-7-yl]acetamide], for which the pIC50 in experiment [1] was over 8.00; in experiment [2], 7.00 to 8.00.

Consider `O=C(Nc1cc2nc(C3COC3)nn2c(-c2ccco2)n1)C1CC1` [Compound 92, N-[5-(furan-2-yl)-2-(oxetan-3-yl)-[1,2,4]triazolo[1,5-c]pyrimidin-7-yl]cyclopropanecarboxamide], for which the pIC50 in experiment [1] was over 8.00; in experiment [2], 7.00 to 8.00.

As to `CC(=O)Nc1cc2nc(C)nn2c(-c2cccc(C(C)=O)c2)n1` [Compound 93, N-[5-(3-acetylphenyl)-2-methyl-[1,2,4]triazolo[1,5-c]pyrimidin-7-yl]acetamide], the pIC50 in experiment [1] and in experiment [2] was under 6.00 each time.

As for `CC(=O)c1cccc(-c2nc(NC(=O)OC(C)(C)C)cc3nc(C)nn23)c1` [Compound 94, tert-butyl N-[5-(3-acetylphenyl)-2-methyl-[1,2,4]triazolo[1,5-c]pyrimidin-7-yl]carbamate], the pIC50 in experiment [1] and in experiment [2] was under 6.00 each time.

`CC(=O)c1cccc(-c2nc(N)cc3nc(C)nn23)c1` [Compound 95, 1-[3-(7-amino-2-methyl-[1,2,4]triazolo[1,5-c]pyrimidin-5-yl)phenyl]ethanone]: the pIC50 in experiment [1] and in experiment [2] was under 6.00 throughout.

As to `CC(=O)c1cccc(-c2nc(NC(=O)C3CC3)cc3nc(C)nn23)c1` [Compound 96, N-[5-(3-acetylphenyl)-2-methyl-[1,2,4]triazolo[1,5-c]pyrimidin-7-yl]cyclopropanecarboxamide], the pIC50 in experiment [1] and in experiment [2] was 6.00 to 7.00 in each case.

With `Cc1nc2c3c(nc(-c4ccc(C)o4)n2n1)NC(=O)C3` [Compound 97, 4-methyl-7-(5-methylfuran-2-yl)-3,5,6,8,10-pentazatricyclo[7.3.0.0^2,6]dodeca-1(9),2,4,7-tetraen-11-one], the pIC50 is over 8.00 in experiment [1] and 7.00 to 8.00 in experiment [2].

Consider `Cc1ccc(-c2nc3c(c4nc(C(C)C)nn24)CC(=O)N3)o1` [Compound 98, 7-(5-methylfuran-2-yl)-4-propan-2-yl-3,5,6,8,10-pentazatricyclo[7.3.0.0^2,6]dodeca-1(9),2,4,7-tetraen-11-one], for which the pIC50 was 7.00 to 8.00 in experiment [1] and 6.00 to 7.00 in experiment [2].

`Cc1nc2cc(NC(=O)C3CC3)nc(-c3ccc(S(C)(=O)=O)cc3)n2n1` [Compound 99, A-[2-methyl-5-(4-methylsulfonylphenyl)-[1,2,4]triazolo[1,5-c]pyrimidin-7-yl]cyclopropanecarboxamide]: the pIC50 in experiment [1] and in experiment [2] was under 6.00 in each case.

With `Cc1nc2cc(NC(=O)OC(C)(C)C)nc(-c3ccc(S(C)(=O)=O)cc3)n2n1` [Compound 100, tert-butyl N-[2-methyl-5-(4-methylsulfonylphenyl)-[1,2,4]triazolo[1,5-c]pyrimidin-7-yl]carbamate], the pIC50 in experiment [1] and in experiment [2] was under 6.00 throughout.

Turning to `CC(=O)Nc1cc2nc(C)nn2c(-c2ccc(S(C)(=O)=O)cc2)n1` [Compound 101, N-[2-methyl-5-(4-methylsulfonylphenyl)-[1,2,4]triazolo[1,5-c]pyrimidin-7-yl]acetamide], the pIC50 in experiment [1] and in experiment [2] was under 6.00 each time.

Regarding `Cc1nc2c3cn[nH]c3nc(-c3ccc(C)o3)n2n1` [Compound 102, 4-methyl-7-(5-methylfuran-2-yl)-3,5,6,8,10,11-hexazatricyclo[7.3.0.0^2,6]dodeca-1(9),2,4,7,11-pentaene], the pIC50 in experiment [1] and in experiment [2] was 7.00 to 8.00 in each case.

With `Cc1nc2cc(NC(=O)N3CCCC3)nc(-c3ccco3)n2n1` [Compound 103, N-[5-(furan-2-yl)-2-methyl-[1,2,4]triazolo[1,5-c]pyrimidin-7-yl]pyrrolidine-1-carboxamide], the pIC50 in experiment [1] is 7.00 to 8.00; in experiment [2], 6.00 to 7.00.

As for `Cc1nc2cc(NC(=O)N3CC[C@@H](O)C3)nc(-c3ccco3)n2n1` [Compound 104, (3R)-N-[5-(furan-2-yl)-2-methyl-[1,2,4]triazolo[1,5-c]pyrimidin-7-yl]-3-hydroxypyrrolidine-1-carboxamide], the pIC50 in experiment [1] was 6.00 to 7.00; in experiment [2] it was under 6.00.

`CC(=O)c1cccc(-c2nc(N)c(Cl)c3nc(C)nn23)c1` [Compound 105, 1-[3-(7-amino-8-chloro-2-methyl-[1,2,4]triazolo[1,5-c]pyrimidin-5-yl)phenyl]ethanone]: the results for the pIC50 in experiment [1] and in experiment [2] were 7.00 to 8.00 and 6.00 to 7.00, respectively.

Regarding `Cc1nc2cc(N)nc(-c3ccc(S(C)(=O)=O)cc3)n2n1` [Compound 106, 2-methyl-5-(4-methylsulfonylphenyl)-[1,2,4]triazolo[1,5-c]pyrimidin-7-amine], the pIC50 in experiment [1] and in experiment [2] was under 6.00 each time.

For `Cc1nc2cc(NC(=O)N3CC[C@H](O)C3)nc(-c3ccco3)n2n1` [Compound 107, (3S)-N-[5-(furan-2-yl)-2-methyl-[1,2,4]triazolo[1,5-c]pyrimidin-7-yl]-3-hydroxypyrrolidine-1-carboxamide], the pIC50 in experiment [1] and in experiment [2] was under 6.00 throughout.

Regarding `CNC(=O)Nc1cc2nc(C)nn2c(-c2ccco2)n1` [Compound 108, 1-[5-(furan-2-yl)-2-methyl-[1,2,4]triazolo[1,5-c]pyrimidin-7-yl]-3-methylurea], the pIC50 in experiment [1] and in experiment [2] was over 8.00 each time.

With `CC(=O)Nc1cc2nc(C3COC3)nn2c(-c2ccc(C)o2)n1` [Compound 109, N-[5-(5-methylfuran-2-yl)-2-(oxetan-3-yl)-[1,2,4]triazolo[1,5-c]pyrimidin-7-yl]acetamide], the values for the pIC50 in experiment [1] and in experiment [2] were over 8.00 and 7.00 to 8.00, respectively.

Turning to `Cc1ccc(-c2nc(NC(=O)C3CC3)cc3nc(C4COC4)nn23)o1` [Compound 110, N-[5-(5-methylfuran-2-yl)-2-(oxetan-3-yl)-[1,2,4]triazolo[1,5-c]pyrimidin-7-yl]cyclopropanecarboxamide], the values for the pIC50 in experiment [1] and in experiment [2] were over 8.00 and 7.00 to 8.00, respectively.

With `COc1ccc(-c2nc(NC(=O)C3CC3)cc3nc(C)nn23)cc1` [Compound 111, N-[5-(4-methoxyphenyl)-2-methyl-[1,2,4]triazolo[1,5-c]pyrimidin-7-yl]cyclopropanecarboxamide], the pIC50 in experiment [1] and in experiment [2] was 7.00 to 8.00 in each case.

With `COc1ccc(-c2nc(NC(=O)OC(C)(C)C)cc3nc(C)nn23)cc1` [Compound 112, tert-butyl N-[5-(4-methoxyphenyl)-2-methyl-[1,2,4]triazolo[1,5-c]pyrimidin-7-yl]carbamate], the pIC50 in experiment [1] and in experiment [2] was under 6.00 throughout.

As to `COc1ccc(-c2nc(NC(C)=O)cc3nc(C)nn23)cc1` [Compound 113, N-[5-(4-methoxyphenyl)-2-methyl-[1,2,4]triazolo[1,5-c]pyrimidin-7-yl]acetamide], the pIC50 in experiment [1] and in experiment [2] was 6.00 to 7.00 throughout.

Regarding `Cc1nc2cc(NC(=O)C3CC3)nc(-c3ccc(S(N)(=O)=O)cc3)n2n1` [Compound 114, N-[2-methyl-5-(4-sulfamoylphenyl)-[1,2,4]triazolo[1,5-c]pyrimidin-7-yl]cyclopropanecarboxamide], the pIC50 in experiment [1] and in experiment [2] was under 6.00 in each case.
